In one assay the target is T1, human CCR2 (Homo sapiens, UniProt P41597).
T1 construct: host or cells: Chem-1 cell line
T1 sequence (P41597 1-360 isoform P41597-2): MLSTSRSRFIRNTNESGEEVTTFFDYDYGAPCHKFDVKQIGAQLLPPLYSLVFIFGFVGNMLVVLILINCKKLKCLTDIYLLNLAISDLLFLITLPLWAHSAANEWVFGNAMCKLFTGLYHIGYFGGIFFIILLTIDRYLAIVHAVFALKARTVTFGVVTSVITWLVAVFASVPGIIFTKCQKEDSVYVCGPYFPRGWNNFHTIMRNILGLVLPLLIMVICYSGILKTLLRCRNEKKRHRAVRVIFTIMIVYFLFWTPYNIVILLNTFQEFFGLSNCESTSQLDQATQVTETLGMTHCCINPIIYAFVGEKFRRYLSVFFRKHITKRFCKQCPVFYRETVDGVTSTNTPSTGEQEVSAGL
Briefly: Functional Ca2+ release test (B-1). The assay is classed as cell-based. The following applies: Chem-1 cell line transfected with human CCR2; 50% inhibition of the MCP-1 effect, MCP-1 at EC50 (about 5 nM); in some cases means of several determinations. The method, then:
The antagonistic action of test substances on CCR2 was determined in a functional Ca^2+ release test. Binding of CCL2/MCP-1 to CCR2 leads to a change in the conformation of the receptor resulting in Gi/Gq protein activation and intracellular signal cascade. This involves, inter alia, an intracellular Ca^2+ release. The test cell used was a Chem-1 cell line transfected with human CCR2 (ChemiSCREEN™ CCR2B Calcium-Optimized FLIPR Cell Line, Merck Millipore).
(§1) The test substances were dissolved in dimethyl sulphoxide (DMSO) at a concentration of 10 mM and serially diluted with DMSO in steps of 1:3.16 for a 10-point dose/activity analysis. According to the desired test concentrations, the substances were pre-diluted in Tyrode with 2 mM CaCl2 and 0.05% BSA.
The cells, cultivated in DMEM high glucose [supplemented with 10% FCS, 1 mM pyruvate, 15 mM HEPES, 500 μg/ml geniticin and non-essential amino acids (NEAA)], were sown at 5000 cells/25 μl in 384 well, μCLEAR/black cell culture plates from Greiner (#781092) and incubated at 37° C. for 24 h. The sowing medium consisted of DMEM high glucose [supplemented with 5% FCS, 1 mM pyruvate, 15 mM HEPES, 50 U/ml penicillin, 50 μg/ml streptomycin and non-essential amino acids (NEAA)]. The medium was then removed and the cells were charged for 60 min at 37° C. with Fluo-4 dye [25 μl Tyrode with 3 μM Fluo-4 AM (1 mM DMSO stock solution), 0.4 mg/ml Brilliant Black, 2.5 mM probenicid, 0.03% Pluronic F-127]. The cells were pre-incubated for 10 min with 10 μl of the test substances diluted in buffer, and 20 μl of agonist solution (MCP-1 in Tyrode with 0.05% BSA) were then added. MCP-1 was employed at the concentration which corresponds to the EC50 which had been determined in a preliminary test (usually about 5 nM). Ca^2+ release was monitored over a period of 120 s in 1 s increments in a proprietary fluorescence imaging reader. The molar concentration of the test substance which caused 50% inhibition of the MCP-1 effect (IC50) was determined using a 4-parameter logistic function (Hill function).

The next assay addresses T2, murine CCR2 (Mus musculus, UniProt P51683).
T2 construct: host or cells: U2OS β-arrestin cell line
Nature of the assay: Functional β-arrestin recruiting test with murine MCP-1 (B-2b). The assay is classed as cell-based. The following applies: U2OS β-arrestin cell line transfected with murine CCR2; agonist murine MCP-1; in some cases means of several determinations. As to the method:
The antagonistic action of test substances on CCR2 was determined in a β-arrestin test. The PathHunter β-arrestin GPCR test system (DiscoveRx Corporation, Ltd.) is a cell-based functional method for detecting binding of β-arrestin to an activated receptor. The molecular basis is a […] complementation measured by the enzymatic conversion of a chemiluminescent substrate. The test cell used was a U2OS β-arrestin cell line transfected with murine CCR2 (93-0543C3, DiscoveRx Corporation, Ltd.).
as §1
The cells, cultivated in MEM Eagle (supplemented with 10% FCS, 50 U/ml of penicillin, 50 μg/ml of streptomycin, 250 μg/ml of hygromycin and 500 μg/ml of geniticin), were sown at 2000 cells/25 μl in 384 well, μCLEAR/black cell culture plates from Greiner (#781092) and incubated at 37° C. for 24 h. The sowing medium consisted of Opti-MEM (supplemented with 1% FCS, 50 U/ml of penicillin and 50 μg/ml of streptomycin). The cells were pre-incubated for 10 min with 10 μl of the test substances diluted in buffer, and 10 μl of agonist solution [human MCP-1 (PeproTech, #300-04) in Tyrode with 0.05% BSA) were then added. The human MCP-1 was employed at the concentration which corresponds to the EC50 which had been determined in a preliminary test (usually about 3 nM). After 90 min of incubation at 37° C., the solution was removed, and recruitment of β-arrestin to CCR2 was detected with the aid of the PathHunter detection reagent (93-001, DiscoveRx Corporation, Ltd.) according to the instructions of the manufacturer. Luminescence was measured after an incubation time of 60 min using a proprietary luminescence imaging measuring instrument. The molar concentration of the test substance which caused 50% inhibition of the MCP-1 effect (IC50) was determined using a 4-parameter logistic function (Hill function).
The test was carried out in a manner identical to that described above under B-2a, but using murine MCP-1 (PeproTech, #250-10) as agonist.
Background: Recruitment of arrestin is a read-out of receptor activation apart from second messengers.

This note sets out measurements from US20160237059A1, “HETEROCYCLIC SUBSTITUTED TRIFLUOROMETHYL PYRIMIDINONES AND THEIR USE” (BAYER PHARMA AKTIENGESELLSCHAFT, priority 2013, published 2016).

T2 sequence (P51683 whole entry): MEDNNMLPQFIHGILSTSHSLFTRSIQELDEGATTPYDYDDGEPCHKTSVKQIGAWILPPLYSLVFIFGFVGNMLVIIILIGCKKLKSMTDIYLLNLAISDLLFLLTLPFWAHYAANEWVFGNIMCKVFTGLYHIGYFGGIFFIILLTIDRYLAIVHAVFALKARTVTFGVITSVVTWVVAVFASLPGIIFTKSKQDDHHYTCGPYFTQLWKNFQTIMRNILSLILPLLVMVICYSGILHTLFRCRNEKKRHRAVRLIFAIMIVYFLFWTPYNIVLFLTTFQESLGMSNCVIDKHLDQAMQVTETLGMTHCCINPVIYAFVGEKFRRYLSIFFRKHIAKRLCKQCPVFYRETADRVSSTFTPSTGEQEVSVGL

Consider `CSc1cccnc1-c1nc(C(F)(F)F)c(Oc2ccc(Cl)c(C(F)(F)F)c2)c(=O)[nH]1` [Example 114], for which the IC50 (usually the concentration needed to halve the response being measured) on human CCR2 was found to be 0.1 nM; at murine CCR2 it was 6.1 nM.

Consider `CSc1cccnc1-c1nc(C(F)(F)F)c(Oc2ccc(Cl)c(Cl)c2)c(=O)[nH]1` [Example 115, 5-(3,4-dichlorophenoxy)-2-[3-(methylsulphanyl)pyridin-2-yl]-6-(trifluoromethyl)pyrimidin-4(3H)-one], for which the IC50 at human CCR2 amounted to 0.2 nM; on murine CCR2, 7.6 nM.

For `COc1nccnc1-c1nc(C(F)(F)F)c(Oc2ccc(Cl)c(C(F)(F)F)c2)c(=O)[nH]1` [Example 116], the IC50 against human CCR2 is 0.3 nM; on murine CCR2, 37 nM.

For the compound `COc1nccnc1-c1nc(C(F)(F)F)c(Oc2ccc(Cl)c(Cl)c2)c(=O)[nH]1` [Example 117, 5-(3,4-dichlorophenoxy)-2-(3-methoxypyrazin-2-yl)-6-(trifluoromethyl)pyrimidin-4(3H)-one], the IC50 against human CCR2 turned out to be 0.3 nM; at murine CCR2 it was 36 nM.

With `O=c1[nH]c(-c2cccnn2)nc(C(F)(F)F)c1Oc1ccc(Cl)c(C(F)(F)F)c1` [Example 118, 5-[4-chloro-3-(trifluoromethyl)phenoxy]-2-(pyridazin-3-yl)-6-(trifluoromethyl)pyrimidin-4(3H)-one], the IC50 against human CCR2 was determined as 0.4 nM; on murine CCR2, 73 nM.

Take `COc1ccc(-c2nc(C(F)(F)F)c(Oc3ccc(Cl)c(C(F)(F)F)c3)c(=O)[nH]2)nc1` [Example 119, 5-[4-chloro-3-(trifluoromethyl)phenoxy]-2-(5-methoxypyridin-2-yl)-6-(trifluoromethyl)pyrimidin-4(3H)-one]: the IC50 turned out to be 0.4 nM against human CCR2 and 185 nM on murine CCR2.

Take `COc1cncnc1-c1nc(C(F)(F)F)c(Oc2ccc(Cl)c(C(F)(F)F)c2)c(=O)[nH]1` [Example 120, 5-[4-chloro-3-(trifluoromethyl)phenoxy]-5′-methoxy-6-(trifluoromethyl)-2,4′-bipyrimidin-4(3H)-one]: the IC50 amounted to 0.5 nM against human CCR2 and 44 nM on murine CCR2.

Take `Nc1ccc(-c2nc(C(F)(F)F)c(Oc3ccc(Cl)c(Cl)c3)c(=O)[nH]2)nn1` [Example 121, 2-(6-aminopyridazin-3-yl)-5-(3,4-dichlorophenoxy)-6-(trifluoromethyl)pyrimidin-4(3H)-one]: the values for the IC50 against human CCR2 and on murine CCR2 were 0.5 nM and 149 nM, respectively.

Regarding `COc1cc(OC)nc(-c2nc(C(F)(F)F)c(Oc3ccc(Cl)c(C(F)(F)F)c3)c(=O)[nH]2)n1` [Example 122, 5-[4-chloro-3-(trifluoromethyl)phenoxy]-4′,6′-dimethoxy-6-(trifluoromethyl)-2,2′-bipyrimidin-4(3H)-one], the IC50 at human CCR2 amounted to 0.6 nM; on murine CCR2 it was 164 nM.

Consider `Nc1ccc(-c2nc(C(F)(F)F)c(Oc3ccc(Cl)c(Cl)c3)c(=O)[nH]2)nc1` [Example 123, 2-(5-aminopyridin-2-yl)-5-(3,4-dichlorophenoxy)-6-(trifluoromethyl)pyrimidin-4(3H)-one], for which the IC50 was 0.6 nM against human CCR2 and 28 nM on murine CCR2.

Turning to `O=c1[nH]c(-c2ccncc2Cl)nc(C(F)(F)F)c1Oc1ccc(Cl)c(Cl)c1` [Example 124, 2-(3-chloropyridin-4-yl)-5-(3,4-dichlorophenoxy)-6-(trifluoromethyl)pyrimidin-4(3H)-one], the values for the IC50 against human CCR2 and at murine CCR2 were 2.9 nM and 320 nM, respectively.

For the compound `O=c1[nH]c(-c2cccnn2)nc(C(F)(F)F)c1Oc1ccc(Cl)c(Cl)c1` [Example 125, 5-(3,4-dichlorophenoxy)-2-(pyridazin-3-yl)-6-(trifluoromethyl)pyrimidin-4(3H)-one], the IC50 against human CCR2 worked out at 9.5 nM; at murine CCR2, 475 nM.

Regarding `O=c1[nH]c(-c2ccnnc2)nc(C(F)(F)F)c1Oc1ccc(Cl)c(Cl)c1` [Example 126, 5-(3,4-dichlorophenoxy)-2-(pyridazin-4-yl)-6-(trifluoromethyl)pyrimidin-4(3H)-one], the IC50 amounted to 1120 nM at human CCR2 and 13900 nM on murine CCR2.

Turning to `O=c1[nH]c(-c2cnccn2)nc(C(F)(F)F)c1Oc1ccc(Cl)c(Cl)c1` [Example 127, 5-(3,4-dichlorophenoxy)-2-(pyrazin-2-yl)-6-(trifluoromethyl)pyrimidin-4(3H)-one], the IC50 against human CCR2 is 2.1 nM; at murine CCR2, 372 nM.

Consider `Nc1ccnc(-c2nc(C(F)(F)F)c(Oc3ccc(Cl)c(Cl)c3)c(=O)[nH]2)c1` [Example 128, 2-(4-aminopyridin-2-yl)-5-(3,4-dichlorophenoxy)-6-(trifluoromethyl)pyrimidin-4(3H)-one], for which the results for the IC50 on human CCR2 and on murine CCR2 were 3.2 nM and 360 nM, respectively.

As to `O=c1[nH]c(-c2ccnnc2)nc(C(F)(F)F)c1Oc1ccc(Cl)c(C(F)(F)F)c1` [Example 129, 5-[4-chloro-3-(trifluoromethyl)phenoxy]-2-(pyridazin-4-yl)-6-(trifluoromethyl)pyrimidin-4(3H)-one], the IC50 stood at 222 nM against human CCR2 and 2710 nM on murine CCR2.

Turning to `O=c1[nH]c(-c2ccncc2Cl)nc(C(F)(F)F)c1Oc1ccc(Cl)c(C(F)(F)F)c1` [Example 131, 2-(3-chloropyridin-4-yl)-5-[4-chloro-3-(trifluoromethyl)phenoxy]-6-(trifluoromethyl)pyrimidin-4(3H)-one], the values for the IC50 against human CCR2 and on murine CCR2 were 2.8 nM and 158 nM, respectively.

For `O=c1[nH]c(-c2cnccn2)nc(C(F)(F)F)c1Oc1ccc(Cl)c(C(F)(F)F)c1` [Example 132, 5-[4-chloro-3-(trifluoromethyl)phenoxy]-2-(pyrazin-2-yl)-6-(trifluoromethyl)pyrimidin-4(3H)-one], the IC50 at human CCR2 is 3.8 nM; at murine CCR2, 259 nM.

Turning to `CN(C)c1ccc(-c2nc(C(F)(F)F)c(Oc3ccc(Cl)c(Cl)c3)c(=O)[nH]2)nc1` [Example 133, 5-(3,4-dichlorophenoxy)-2-[5-(dimethylamino)pyridin-2-yl]-6-(trifluoromethyl)pyrimidin-4(3H)-one], the IC50 came out at 0.8 nM at human CCR2 and 21700 nM at murine CCR2.

As to `CN(C)c1ccc(-c2nc(C(F)(F)F)c(Oc3ccc(Cl)c(C(F)(F)F)c3)c(=O)[nH]2)nc1` [Example 134, 5-[4-chloro-3-(trifluoromethyl)phenoxy]-2-[5-(dimethylamino)pyridin-2-yl]-6-(trifluoromethyl)pyrimidin-4(3H)-one], the IC50 came out at 2.1 nM at human CCR2 and 51 nM at murine CCR2.
